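48-hour exposure; five concentrations; linearly interpolated endpoints. GI50 marks 50% less growth. TGI: total growth inhibition.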
Assays:
Assay in all cases: NCI tumour cell line growth inhibition, 48 h; in the data active = GI50 below about 0.43 µM; inactive = the rest
[1] = system: 786-0 renal
[2] = system: A498 renal
[3] = system: A549 NSCLC
[4] = system: ACHN renal
[5] = system: BT-549 breast
[6] = system: CAKI-1 renal
[7] = system: CCRF-CEM leukemia
[8] = system: COLO 205 colon
[9] = system: DU-145 prostate
[10] = system: EKVX NSCLC
[11] = system: HCC-2998 colon
[12] = system: HCT-116 colon
[13] = system: HCT-15 colon
[14] = system: HL-60(TB) leukemia
[15] = system: HOP-62 NSCLC
[16] = system: HOP-92 NSCLC
[17] = system: HS 578T breast
[18] = system: HT29 colon
[19] = system: IGROV1 ovarian
[20] = system: K-562 leukemia
[21] = system: KM12 colon
[22] = system: LOX IMVI melanoma
[23] = system: M14 melanoma
[24] = system: MALME-3M melanoma
[25] = system: MCF7 breast
[26] = system: MDA-MB-231 breast
[27] = system: MDA-MB-435
[28] = system: MOLT-4 leukemia
[29] = system: NCI-H226 lung
[30] = system: NCI-H23 lung
[31] = system: NCI-H460 lung
[32] = system: NCI-H522 lung
[33] = system: NCI/ADR-RES ovarian
[34] = system: OVCAR-3 ovarian
[35] = system: OVCAR-4 ovarian
[36] = system: OVCAR-5 ovarian
[37] = system: OVCAR-8 ovarian
[38] = system: PC-3 prostate
[39] = system: RPMI-8226 leukemia
[40] = system: RXF 393 renal
[41] = system: SF-268 CNS
[42] = system: SF-295 CNS
[43] = system: SF-539 CNS
[44] = system: SK-MEL-2 melanoma
[45] = system: SK-MEL-28 melanoma
[46] = system: SK-MEL-5 melanoma
[47] = system: SK-OV-3 ovarian
[48] = system: SN12C renal
[49] = system: SNB-19 CNS
[50] = system: SNB-75 CNS
[51] = system: SR leukemia
[52] = system: SW-620 colon
[53] = system: T-47D breast
[54] = system: TK-10 renal
[55] = system: U251 CNS
[56] = system: UACC-257 melanoma
[57] = system: UACC-62 melanoma
[58] = system: UO-31 renal
[59] = system: MDA-N

COc1cccc(NC2=C(Cl)C(=O)N(Cc3ccc(Cl)cc3)C2=O)c1
49.2 µM: TGI [4]
12.8 µM: TGI [42]
6.09 µM: TGI [46]
9.81 µM: TGI [30]
4.18 µM: TGI [5]
inactive: GI50 [1] 1.54 µM | GI50 [2] 11.8 µM | GI50 [3] 2.67 µM | GI50 [4] 6.43 µM | GI50 [5] 0.655 µM | GI50 [6] 2.25 µM | GI50 [8] 4.96 µM | GI50 [9] 3.8 µM | GI50 [10] 12.5 µM | GI50 [11] 2.64 µM | GI50 [12] 1.59 µM | GI50 [13] 1.05 µM | GI50 [14] 3.15 µM | GI50 [15] 2.4 µM | GI50 [16] 13.1 µM | GI50 [17] 3.21 µM | GI50 [18] 2.72 µM | GI50 [19] 11.9 µM | GI50 [20] 0.801 µM | GI50 [21] 2.34 µM | GI50 [22] 1.45 µM | GI50 [23] 1.66 µM | GI50 [24] 1.17 µM | GI50 [25] 2.09 µM | GI50 [26] 2.15 µM | GI50 [28] 1.36 µM | GI50 [29] 1.27 µM | GI50 [30] 2.84 µM | GI50 [31] 2.93 µM | GI50 [32] 4.76 µM | GI50 [33] 1.22 µM | GI50 [34] 1.62 µM | GI50 [35] 9.69 µM | GI50 [36] 10 µM | GI50 [37] 1.82 µM | GI50 [38] 1.68 µM | GI50 [39] 0.985 µM | GI50 [40] 0.788 µM | GI50 [41] 3.02 µM | GI50 [42] 2.35 µM | GI50 [43] 1.73 µM | GI50 [44] 12.5 µM | GI50 [45] 8.37 µM | GI50 [46] 1.21 µM | GI50 [47] 8.09 µM | GI50 [48] 2.61 µM | GI50 [49] 8.25 µM | GI50 [50] 3.22 µM | GI50 [52] 0.847 µM | GI50 [53] 10.9 µM | GI50 [54] 3.45 µM | GI50 [55] 1.24 µM | GI50 [56] 3.12 µM | GI50 [57] 1.97 µM | GI50 [58] 7.88 µM
> 100 µM: TGI [18] | TGI [28] | TGI [49] | TGI [50] | TGI [53]
27.3 µM: TGI [2] | TGI [54]
> 34.6 µM: TGI [55]
7.89 µM: TGI [34]
> 20.3 µM: TGI [39]
> 23.8 µM: TGI [44]
14.1 µM: TGI [24]
5.39 µM: TGI [33]
6.86 µM: TGI [29]
> 37.4 µM: TGI [19]
26.8 µM: TGI [3]
> 68.9 µM: TGI [7]
> 71.5 µM: TGI [35]
39.8 µM: TGI [8]
1.61 µM: TGI [27]
8.39 µM: TGI [1]
18.3 µM: TGI [57]
14.7 µM: TGI [52]
30.3 µM: TGI [56]
5.7 µM: TGI [43]
17.5 µM: TGI [6]
13.3 µM: TGI [17]
12.3 µM: TGI [15]
31.7 µM: TGI [58]
36.3 µM: TGI [45]
10.4 µM: TGI [38]
60.8 µM: TGI [14]
30.5 µM: TGI [21]
> 46.3 µM: TGI [20]
active: GI50 [27] 0.234 µM | GI50 [51] 0.261 µM
13.5 µM: TGI [12]
8.62 µM: TGI [13]
22.9 µM: TGI [32]
12.7 µM: TGI [11]
18.5 µM: TGI [31]
> 43.1 µM: TGI [37]
60.6 µM: TGI [47]
> 35.3 µM: TGI [22]
38.8 µM: TGI [10]
7.71 µM: TGI [23]
12.1 µM: TGI [9]
12.9 µM: TGI [48]
43.2 µM: TGI [36]
> 38.8 µM: TGI [25]
6.26 µM: TGI [40]
13.9 µM: TGI [41]
35.4 µM: TGI [16]

Cc1ccc(S(=O)(=O)Nn2c(O)c(C#N)c(-c3ccc([N+](=O)[O-])cc3)c(C#N)c2=O)cc1
> 100 µM: TGI [1] | TGI [2] | TGI [3] | TGI [4] | TGI [5] | TGI [6] | TGI [7] | TGI [8] | TGI [10] | TGI [11] | TGI [12] | TGI [13] | TGI [14] | TGI [15] | TGI [16] | TGI [18] | TGI [19] | TGI [20] | TGI [21] | TGI [22] | TGI [23] | TGI [24] | TGI [25] | TGI [26] | TGI [27] | TGI [59] | TGI [28] | TGI [29] | TGI [31] | TGI [32] | TGI [33] | TGI [35] | TGI [36] | TGI [37] | TGI [38] | TGI [40] | TGI [41] | TGI [42] | TGI [43] | TGI [44] | TGI [45] | TGI [46] | TGI [47] | TGI [48] | TGI [49] | TGI [50] | TGI [52] | TGI [54] | TGI [55] | TGI [56] | TGI [57]

O=c1[nH]c2ccc(CC(=S)N3CCCCC3)cc2s1
> 100 µM: TGI [1] | TGI [4] | TGI [5] | TGI [6] | TGI [8] | TGI [9] | TGI [12] | TGI [13] | TGI [15] | TGI [20] | TGI [21] | TGI [22] | TGI [23] | TGI [25] | TGI [26] | TGI [27] | TGI [59] | TGI [28] | TGI [30] | TGI [34] | TGI [36] | TGI [37] | TGI [38] | TGI [42] | TGI [44] | TGI [45] | TGI [47] | TGI [49] | TGI [51] | TGI [52] | TGI [54] | TGI [56] | TGI [57]

From PubChem BioAssay (NCI)
